Laboratory results published in patent publication US7914821B2, “Pharmaceutical composition for prevention and/or treatment of bone loss” (KO DA Pharmaceuticals Co., Ltd., priority 2008, dated 2011).

B1: noggin: noggin, 1 μg/ml, suppressed the imperatorin or bergapten induced-ALP activity (protein, UniProt Q13253 28-232, looked up)
Noggin: QHYLHIRPAPSDNLPLVDLIEHPDPIFDPKEKDLNETLLRSLLGGHYDPGFMATSPPEDRPGGGGGAAGGAEDLAELDQLLRQRPSGAMPSEIKGLEFSEGLAQGKKQRLSKKLRRKLQMWLWSQTFCPVLYAWNDLGSRFWPRYVKVGSCFSKRSCSVPEGMVCKPSKSVHLTVLRWRCQRRGGQRCGWIPIQYPIISECKCSC

Tests used:
Format in all cases: cell-based, rat
Bone cells [1] = test: Effect of p38 and ERK inhibitors on ALP activity in bone cells; details: 10 μM inhibitor with 10 μM imperatorin or bergapten, 48 hrs; FIG. 11C
Description: (§1) Rat primary osteoblast was isolated from the parietal bone of gestation day 18 embryos of Sprague-Dawley rats. After being slaughtered, the embryo rats were obtained from the uteruses of the rats, and calvarium was isolated from the embryo rats. Parietal bone was cut from the calvarium and digested by 0.1% collagenase for 20 minutes to release the bone cells from the bone tissue. The digestion step was repeated five times. The collected bone cells were cultured in α-MEM containing 1% penicillin-streptomycin and 10% FBS in a humidified atmosphere of 5 percent carbon dioxide. When cells were attached and confluence, they were sub-cultured, which was called “passage 2 (P2)”. The passage was for analogizing. 2 to 5 passage cells were used for the experiments.
Bone cells were cultured and treated with (1) 10 μM SB203580, (2) 10 μM PD98059, (3) 10 μM imperatori, (4) 10 μM bergapten, (5) 10 μM imperatorin+SB203580, (6) 10 μM bergapten+SB203580, (7) 10 μM imperatorin+PD98059 ? (8) 10 μM bergapten+PD98059 for 48 hrs. After treatment, the bone cells were lysed in 0.2% […] solution and centrifuged at 1500×g for 5 minutes. The supernatant was analyzed by an ALP kit such as described above to obtain the ALP activity. The ALP activity in the control group which was treated with 0.1% DMSO was defined as 100%. […]

EPK protein = test: Effect of ERK inhibitor on induced phosphorylation of EPK protein; details: inhibitor for 30 minutes before imperatorin and bergapten; FIGS. 11A-11B
Description: Bone cells was cultured in 6-well plate and treated with 10 μM of imperatorin and bergapten for 1, 3, 6, 12, and 24 hrs, respectively. After treatment, the culture medium was replaced with a lysis buffer containing 50 mM HEPES (PH 7.4), 150 mM NaCl, 4 mM EDTA, 10 mM Na4P2O7, 100 mM NaF, 2 mM Na3VO4, 1% (v/v) Triton X-100, 0.25% (w/v) sodium deoxycholate, 50 mM 4-(2-aminoethyl)benzene sulfonylfluoride, 50 μg/ml leupeptin, and 20 μg/ml aprotinin, and then centrifuged at 13000 rpm for 15 minutes to obtain the protein pellets. 30 μg of proteins were dissolved in 5× Laemmli buffer, boiled at 95° C. for 5 minutes, and then subjected to SDS-PAGE gel (8%) electrophoresis. Proteins on the gel were then transferred to a PVDF membrane. The PVDF membrane was blocked in 4% BSA solution for 1 hour at room temperature. The blocked membrane was then incubated in PBST buffer (0.1% Tween-20) containing p-SMAD, p-ERK, or p38 primary antibody. Following incubation with primary antibody, the membrane was washed three times with PBST, and then incubated for 1 hr at room temperature with the secondary antibody, an anti-mouse or anti-goat IgG labeled with horseradish peroxidase. Following incubation with the secondary antibody, the membrane was washed three times with PBST, and detected by an […] chemiluminescence using an ECL blotting substrate according to the manufacturer's instructions. […]

p38 = test: Effect of p38 inhibitor on induced phosphorylation of p38; details: inhibitor for 30 minutes before imperatorin and bergapten; FIGS. 11A-11B
Description: Bone cells was cultured in 6-well plate and treated with 10 μM of imperatorin and bergapten for 1, 3, 6, 12, and 24 hrs, respectively. […] 30 μg of proteins were dissolved in 5× Laemmli buffer, boiled at 95° C. for 5 minutes, and then subjected to SDS-PAGE gel (8%) electrophoresis. Proteins on the gel were then transferred to a PVDF membrane. The PVDF membrane was blocked in 4% BSA solution for 1 hour at room temperature. The blocked membrane was then incubated in PBST buffer (0.1% Tween-20) containing p-SMAD, p-ERK, or p38 primary antibody. Following incubation with primary antibody, the membrane was washed three times with PBST, and then incubated for 1 hr at room temperature with the secondary antibody, an anti-mouse or anti-goat IgG labeled with horseradish peroxidase. Following incubation with the secondary antibody, the membrane was washed three times with PBST, and detected by an enzyme-linked chemiluminescence using an ECL blotting substrate according to the manufacturer's instructions.
In the control group, a non-phosphorylation p38 and non-phosphorylation EPK proteins were subjected to SDS-PAGE gel electrophoresis.

Bone cells [2] = test: ALP activity with imperatorin, bergapten and noggin; details: 1 μg/ml noggin with 10 μM imperatorin or 10 μM bergapten, 48 hrs; FIG. 9C
Description: as §1
Bone cells were treated with (1) 10 μM imperatorin, (2) 10 μM bergapten, (3) 10 μM imperatorin+noggin, (4) 10 μM bergapten+noggin, and (5) 1 μg/ml noggin for 48 his, respectively. After treatment, the bone cells were lysed in 0.2% […] solution, and then centrifuged at 1500×g for 5 minutes to obtain a supernatant. The supernatant was analyzed by ALP kit as described above to obtain the ALP activity. The ALP activity in the control group which was treated with 0.1% DMSO was defined as 100%. Referring to FIG. 9C, noggin suppressed the imperatorin or bergapten induced-ALP activity.

Row | Molecule | imperatorin and bergapten induced-ALP activity (Bone cells [1]) | imperatorin and bergapten induced-phosphorylation (EPK protein) (EPK protein) | imperatorin and bergapten induced-phosphorylation (p38) (p38) | imperatorin or bergapten induced-ALP activity (Bone cells [2])
1 | COc1cccc(-c2cc(=O)c3ccccc3o2)c1N [PD98059] | suppressed | suppressed |  | 
2 | C[S+]([O-])c1ccc(-c2nc(-c3ccncc3)c(-c3ccc(F)cc3)[nH]2)cc1 (centres unmarked) [SB203580] | suppressed |  | suppressed | 
3 | B1 |  |  |  | suppressed
